Key:
[1] = Solubility testing in a polyethylene glycol/transcutol/ethanol/DMSO formulation; format: physicochemical; settings: for Conc.: concentration tested in formulation of about 25-75% polyethylene glycol, 5-20% transcutol, 5-50% ethanol, 5-10% DMSO, room temperature, Notes column says whether it dissolved; for Notes (dissolved / failed to dissolve): stirred 1 hour, overnight or 24 hours at room temperature
From the text: Results are detailed in the table below.

[2] = target: T1, Mitochondrial Pyruvate Carrier (MPC) (Homo sapiens, UniProt O95563+Q9Y5U8); experiment: Pyruvate-driven respiration (OCR, XF96) in permeabilized HepG2 cells to test MPC; format: cell-based; settings: pyruvate/malate substrate, nine-point dose-response, 1 or 3 replicates
T1 sequence (Q9Y5U8 1-109): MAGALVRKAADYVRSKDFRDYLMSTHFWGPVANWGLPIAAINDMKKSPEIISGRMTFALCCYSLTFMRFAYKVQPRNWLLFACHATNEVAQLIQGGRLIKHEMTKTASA
T1 sequence (O95563 1-127): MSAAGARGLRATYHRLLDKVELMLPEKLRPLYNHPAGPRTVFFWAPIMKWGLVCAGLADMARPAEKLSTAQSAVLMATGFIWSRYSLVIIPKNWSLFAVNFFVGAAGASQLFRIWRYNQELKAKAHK

Row | SMILES | Conc. [1] | Notes (dissolved / failed to dissolve) [1] | IC50 [2]
1 | N#C/C(=C\c1cn(Cc2cc(C(F)(F)F)cc(C(F)(F)F)c2)c2ncccc12)C(=O)O [JXL069, reference compound] | 0.027% w/w | Stirred overnight at room temperature; dissolved | 51.2 nM
2 | N#C/C(=C\c1cn(Cc2ccccc2C(F)(F)F)c2ncccc12)C(=O)O [PP26, (E)-2-Cyano-3-(1-(2-(trifluoromethyl)benzyl)-1H-pyrrolo[2,3-b]pyridin-3-yl) acrylic acid] | 0.1% w/w | Stirred 1 hour at room temperature; dissolved | 54 nM
3 | N#C/C(=C\c1cn(Cc2cccc(C(F)(F)F)c2)c2ncccc12)C(=O)O [PP27, (E)-2-Cyano-3-(1-(3-(trifluoromethyl)benzyl)-1H-pyrrolo[2,3-b]pyridin-3-yl) acrylic acid] | 0.15% w/w | Stirred 1 hour at room temperature; dissolved | 36.3 nM
4 | N#C/C(=C\c1cn(Cc2ccccc2F)c2ncccc12)C(=O)O [PP35, (E)-2-cyano-3-(1-(2-fluorobenzyl)-1H-pyrrolo[2,3-b]pyridin-3-yl)acrylic acid] | 0.1% w/w | – | 34 nM
5 | N#C/C(=C\c1cn(Cc2cccc(F)c2)c2ncccc12)C(=O)O [PP36, (E)-2-cyano-3-(1-(3-fluorobenzyl)-1H-pyrrolo[2,3-b]pyridin-3-yl)acrylic acid] | 0.1% w/w | – | 26 nM
6 | N#C/C(=C\c1cn(Cc2ccc(F)cc2)c2ncccc12)C(=O)O [PP37, (E)-2-cyano-3-(1-(4-fluorobenzyl)-1H-pyrrolo[2,3-b]pyridin-3-yl)acrylic acid] | – | – | 109 nM
7 | N#C/C(=C\c1cn(Cc2ccccn2)c2ncccc12)C(=O)O [PP38, Sodium (E)-2-cyano-3-(1-(pyridin-2-ylmethyl)-1H-pyrrolo[2,3-b]pyridin-3-yl)acrylate] | – | – | 183 nM
8 | N#C/C(=C\c1cn(Cc2cccnc2)c2ncccc12)C(=O)O [PP39, Sodium (E)-2-cyano-3-(1-(pyridin-3-ylmethyl)-1H-pyrrolo[2,3-b]pyridin-3-yl)acrylate] | – | – | 262 nM
9 | N#C/C(=C\c1cn(Cc2ccncc2)c2ncccc12)C(=O)O [PP40, Sodium (E)-2-cyano-3-(1-(pyridin-4-ylmethyl)-1H-pyrrolo[2,3-b]pyridin-3-yl)acrylate] | – | – | 411 nM
